Measured values from ChEMBL document CHEMBL4665678, “Overview of AKR1C3: Inhibitor Achievements and Disease Insights” (J Med Chem, 2020).
Numbering of substitutions follows the chain as printed. One block for each molecule: values may come before it.

Key:
[1] = target: T1, Aldo-keto reductase family 1 member C3 (Homo sapiens, UniProt P42330); test: Inhibition of AKR1C3 (unknown origin) using 4-androstene-3,17-dione as substrate
T1 sequence (P42330 whole entry): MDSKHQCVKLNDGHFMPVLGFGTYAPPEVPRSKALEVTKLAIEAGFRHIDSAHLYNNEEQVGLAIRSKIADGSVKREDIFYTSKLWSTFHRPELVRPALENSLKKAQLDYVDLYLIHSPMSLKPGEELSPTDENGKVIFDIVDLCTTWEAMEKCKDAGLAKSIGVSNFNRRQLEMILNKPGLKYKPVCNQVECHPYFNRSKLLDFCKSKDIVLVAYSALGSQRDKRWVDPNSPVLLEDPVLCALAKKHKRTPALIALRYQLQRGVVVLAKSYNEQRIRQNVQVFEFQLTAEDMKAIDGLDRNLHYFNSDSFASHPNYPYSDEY

[2] = target: T2, Prostaglandin G/H synthase 1 (Ovis aries, UniProt P05979); test: Inhibition of ovine COX-1 using [14C] arachidonic acid as substrate preincubated for 20 mins followed by substrate addition measured after 30 sec by thin layer chromatography assay
T2 sequence (P05979 whole entry): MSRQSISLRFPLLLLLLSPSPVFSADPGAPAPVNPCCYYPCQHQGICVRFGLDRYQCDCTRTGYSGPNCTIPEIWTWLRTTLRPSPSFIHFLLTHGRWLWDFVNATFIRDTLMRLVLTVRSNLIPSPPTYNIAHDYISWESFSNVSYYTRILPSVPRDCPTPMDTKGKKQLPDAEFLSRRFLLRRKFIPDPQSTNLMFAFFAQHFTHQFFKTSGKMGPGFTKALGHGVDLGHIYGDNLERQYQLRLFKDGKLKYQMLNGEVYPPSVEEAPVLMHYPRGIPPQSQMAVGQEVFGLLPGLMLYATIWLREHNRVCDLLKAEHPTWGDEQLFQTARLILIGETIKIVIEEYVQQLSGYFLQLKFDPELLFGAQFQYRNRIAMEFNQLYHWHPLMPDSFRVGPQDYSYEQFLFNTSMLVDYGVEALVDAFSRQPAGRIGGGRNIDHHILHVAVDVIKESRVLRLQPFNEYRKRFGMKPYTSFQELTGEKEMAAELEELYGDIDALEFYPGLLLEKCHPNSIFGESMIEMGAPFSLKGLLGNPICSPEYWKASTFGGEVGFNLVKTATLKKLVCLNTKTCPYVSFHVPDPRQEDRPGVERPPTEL

AKR1C1 = target: T3, AKR1C1 (Homo sapiens, UniProt Q04828); test: Inhibition of AKR1C1 (unknown origin) using 9,10-phenanthrenequinone as substrate at 60 uM relative to control; settings: probe 9,10-phenanthrenequinone
T3 sequence (Q04828 whole entry): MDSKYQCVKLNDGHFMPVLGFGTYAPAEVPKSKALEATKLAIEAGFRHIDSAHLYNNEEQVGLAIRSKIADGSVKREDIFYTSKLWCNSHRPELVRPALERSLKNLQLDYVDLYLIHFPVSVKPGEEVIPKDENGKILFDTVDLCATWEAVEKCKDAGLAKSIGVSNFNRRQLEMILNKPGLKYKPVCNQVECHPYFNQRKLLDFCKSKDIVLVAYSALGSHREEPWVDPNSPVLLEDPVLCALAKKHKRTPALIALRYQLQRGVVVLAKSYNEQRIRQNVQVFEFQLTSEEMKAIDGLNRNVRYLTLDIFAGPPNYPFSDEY

AKR1C2 = target: T4, AKR1C2 (Homo sapiens, UniProt P52895); test: Inhibition of AKR1C2 (unknown origin) using 9,10-phenanthrenequinone as substrate at 60 uM relative to control; settings: probe 9,10-phenanthrenequinone
T4 sequence (P52895 whole entry): T3 sequence (Q04828 whole entry) with T38V, R47H, L54V, C87S, V151M, R170H, Q172L

[3] = target: T1, Aldo-keto reductase family 1 member C3; test: Inhibition of AKR1C3 (unknown origin) using 9,10-phenanthrenequinone as substrate
[4] = target: T5, Prostaglandin G/H synthase 2 (Homo sapiens, UniProt P35354); test: Inhibition of human COX-2 expressed in Sf9 insect cells using [14C] arachidonic acid as substrate preincubated for 20 mins followed by substrate addition measured after 30 sec by thin layer chromatography assay
T5 sequence (P35354 whole entry): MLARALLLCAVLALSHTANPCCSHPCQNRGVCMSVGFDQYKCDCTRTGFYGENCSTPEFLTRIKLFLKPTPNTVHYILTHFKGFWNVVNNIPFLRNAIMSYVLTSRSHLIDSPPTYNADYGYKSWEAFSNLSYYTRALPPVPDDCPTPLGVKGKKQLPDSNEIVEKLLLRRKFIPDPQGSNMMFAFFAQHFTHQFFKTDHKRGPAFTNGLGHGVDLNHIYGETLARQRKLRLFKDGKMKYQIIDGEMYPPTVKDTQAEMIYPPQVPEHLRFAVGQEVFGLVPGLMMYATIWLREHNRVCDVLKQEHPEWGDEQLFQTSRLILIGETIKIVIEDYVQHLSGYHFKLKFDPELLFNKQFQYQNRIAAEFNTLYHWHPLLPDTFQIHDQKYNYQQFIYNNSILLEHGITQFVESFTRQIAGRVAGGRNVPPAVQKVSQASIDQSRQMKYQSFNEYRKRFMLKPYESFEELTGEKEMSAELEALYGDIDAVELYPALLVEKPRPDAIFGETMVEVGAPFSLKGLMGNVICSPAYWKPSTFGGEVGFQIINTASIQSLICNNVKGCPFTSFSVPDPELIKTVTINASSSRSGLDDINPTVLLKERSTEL

[5] = target: T1, Aldo-keto reductase family 1 member C3; test: Inhibition of N-terminal His-tagged human AKR1C3 (1 to 323 residues) expressed in Escherichia coli using 4-adione as substrate in presence of NADPH by fluorescence method
[6] = target: T1, Aldo-keto reductase family 1 member C3; test: Inhibition of human AKR1C3 expressed in Escherichia coli incubated for 30 mins in presence of NADPH regeneration system by UHPLC analysis
[7] = target: T1, Aldo-keto reductase family 1 member C3; test: Inhibition of AKR1C3 (unknown origin) expressed in human HCT116 cells incubated for 2 to 4 hrs by UHPLC analysis; type: cell-based, HCT-116
[8] = target: T1, Aldo-keto reductase family 1 member C3; test: Inhibition of human AKR1C3 expressed in Escherichia coli incubated for 30 mins in presence of NADPH regeneration system by UHPLC method based Lineweaver-Burk double-reciprocal plot analysis
[9] = target: T1, Aldo-keto reductase family 1 member C3; test: Inhibition of AKR1C3 (unknown origin) expressed in human HCT116 cells incubated for 3 to 6 hrs by UHPLC analysis; type: cell-based, HCT-116
[10] = target: T6, Aldo-keto reductase family 1 member C1 (Homo sapiens, UniProt Q04828); test: Inhibition of NH2-terminal His6-tagged recombinant human AKR1C1 expressed in Escherichia coli BL21(DE3) cells using assessed as phenanthrenequinone reduction
T6 sequence (Q04828 whole entry): T3 sequence (Q04828 whole entry)

[11] = target: T7, Aldo-keto reductase family 1 member C2 (Homo sapiens, UniProt P52895); test: Inhibition NH2-terminal His6-tagged recombinant human AKR1C2 expressed in Escherichia coli BL21(DE3) cells using assessed as phenanthrenequinone reduction
T7 sequence (P52895 whole entry): T3 sequence (Q04828 whole entry) with T38V, R47H, L54V, C87S, V151M, R170H, Q172L

[12] = target: T8, Aldo-keto reductase family 1 member C3 (Homo sapiens) (UniProt P42330); test: Inhibition NH2-terminal His6-tagged recombinant human AKR1C3 expressed in Escherichia coli BL21(DE3) cells using assessed as phenanthrenequinone reduction
T8 sequence (whole entry): T1 sequence (P42330 whole entry)

[13] = target: T1, Aldo-keto reductase family 1 member C3; test: Inhibition of human AKR1C3 expressed in Escherichia coli preincubated for 15 mins followed by Adion addition and measured after 30 mins by HPLC analysis

Structure (SMILES): COc1ccc2c(c1)c(CCNC(C)=O)cn2C(=O)c1ccc(Cl)cc1
IC50 [1]: 11.4 µM | IC50 [2]: > 60 µM | inhibition at 60 µM (AKR1C1): < 10% | inhibition at 60 µM (AKR1C2): < 10% | IC50 [3]: 7.8 µM | IC50 [4]: > 60 µM

Structure (SMILES): COc1ccc2cc3[n+](cc2c1OC)CCc1cc2c(cc1-3)OCO2 [BERBERINE]
IC50 [5]: 4.08 µM

Structure (SMILES): Nc1cc(C(F)(F)F)c(-c2cc(N3CCOCC3)nc(N3CCOCC3)n2)cn1 [BUPARLISIB]
IC50 [6]: 9.5 µM | IC50 [7]: 7.9 µM | Ki [8]: 14 µM

Structure (SMILES): CO[C@@H]1C=C[C@@]23c4cc5c(cc4CO[C@]2(O)CN(C)[C@H]3C1)OCO5 [TAZETTINE]
IC50 [13]: 15.8 µM

Other lines, results leading:

Ki ([6]; read-out: Ki(app)): 0.07 µM | IC50 [9]: 0.23 µM
Structure (SMILES): CCc1cnn2c(NCc3ccc[n+]([O-])c3)cc(N3CCCC[C@H]3CCO)nc12 [DINACICLIB]

Kis [10]: 162 uM/L | Kis [11]: 49 uM/L | Kis [12]: 153 µM/L
Structure (SMILES): CC/C=C\CC1C(=O)CCC1CC(=O)OC (stereo unspecified) [METHYL JASMONATE]
